According to ChEMBL document CHEMBL3872204, “Synthesis and immunopotentiating activity of novel isoxazoline functionalized coumarins” (Eur J Med Chem, 2016):
The source made the active and inactive calls. The rule behind the calls is not given here.

Legend:
Splenic lymphocyte [1] = experiment: Immunopotentiating activity in splenic lymphocytes (unknown origin) assessed as effect on proliferation by measuring cell viability pretreated followed by incubation of lymphocytes with ConA for 48 hrs by MTT assay; type: functional, cell-based
Splenic lymphocyte [2] = experiment: Immunopotentiating activity in splenic lymphocytes (unknown origin) assessed as effect on proliferation by measuring cell viability pretreated followed by incubation of lymphocytes with LPS for 48 hrs by MTT assay; type: functional, cell-based
Mus musculus [3] = experiment: Immunopotentiating activity in sheep RBC-immunized BALB/c mouse assessed as B-cell activation by measuring IgM antibody titer in serum at 0.001 mg/kg, po for 14 days measured on day 7 post dose by hemagglutinination technique; type: functional, organism-based
Mus musculus [4] = experiment: Immunopotentiating activity in sheep RBC-immunized BALB/c mouse assessed as B-cell activation by measuring IgM antibody titer in serum at 0.01 mg/kg, po for 14 days measured on day 7 post dose by hemagglutinination technique; type: functional, organism-based
Mus musculus [5] = experiment: Immunopotentiating activity in sheep RBC-immunized BALB/c mouse assessed as B-cell activation by measuring IgM antibody titer in serum at 0.1 mg/kg, po for 14 days measured on day 7 post dose by hemagglutinination technique; type: functional, organism-based
Mus musculus [6] = experiment: Immunopotentiating activity in sheep RBC-immunized BALB/c mouse assessed as B-cell activation by measuring IgG antibody titer in serum at 0.001 mg/kg, po for 14 days by hemagglutinination technique; type: functional, organism-based
Mus musculus [7] = experiment: Immunopotentiating activity in sheep RBC-immunized BALB/c mouse assessed as B-cell activation by measuring IgG antibody titer in serum at 0.01 mg/kg, po for 14 days by hemagglutinination technique; type: functional, organism-based
Mus musculus [8] = experiment: Immunopotentiating activity in sheep RBC-immunized BALB/c mouse assessed as B-cell activation by measuring IgG antibody titer in serum at 0.1 mg/kg, po for 14 days by hemagglutinination technique; type: functional, organism-based
Mus musculus [9] = experiment: Immunopotentiating activity in sheep RBC-immunized BALB/c mouse assessed as increase in delayed-type hypersensitivity response by measuring left hind foot pad thickness at 0.001 mg/kg, po qd administered 2 hrs post immunization for 7 days measured 24 to 48 hrs post SRBC challenge by spheromicrometer method; type: functional, organism-based
Mus musculus [10] = experiment: Immunopotentiating activity in sheep RBC-immunized BALB/c mouse assessed as increase in isolated splenic T-cell proliferation administered orally for 14 days followed by incubation of isolated splenocytes with ConA for 72 hrs by MTT assay; type: functional
Mus musculus [11] = experiment: Immunopotentiating activity in sheep RBC-immunized BALB/c mouse assessed as increase in isolated splenic T-cell proliferation administered orally for 14 days followed by incubation of isolated splenocytes with LPS for 72 hrs by MTT assay; type: functional
Mus musculus [12] = experiment: Immunopotentiating activity in sheep RBC-immunized BALB/c mouse assessed as increase in isolated splenic […] proliferation administered orally for 14 days followed by incubation of isolated splenocytes with ConA for 72 hrs by MTT assay; type: functional
Mus musculus [13] = experiment: Immunopotentiating activity in sheep RBC-immunized BALB/c mouse assessed as increase in isolated splenic B-cell proliferation administered orally for 14 days followed by incubation of isolated splenocytes with LPS for 72 hrs by MTT assay; type: functional
Mus musculus [14] = experiment: Immunopotentiating activity in sheep RBC-immunized BALB/c mouse assessed as CD4-positive splenic T-cells at 0.001 mg/kg, po for 14 days by flow cytometry (reference value: 20.7 +/- 0.9%); type: functional
Mus musculus [15] = experiment: Immunopotentiating activity in sheep RBC-immunized BALB/c mouse assessed as CD4-positive splenic T-cells at 0.01 mg/kg, po for 14 days by flow cytometry (reference value: 20.7 +/- 0.9%); type: functional
Mus musculus [16] = experiment: Immunopotentiating activity in sheep RBC-immunized BALB/c mouse assessed as CD4-positive splenic T-cells at 0.1 mg/kg, po for 14 days by flow cytometry (reference value: 20.7 +/- 0.9%); type: functional
Mus musculus [17] = experiment: Immunopotentiating activity in sheep RBC-immunized BALB/c mouse assessed as CD8-positive splenic T-cells at 0.001 mg/kg, po for 14 days by flow cytometry (reference value: 13.3 +/- 0.34%); type: functional
Mus musculus [18] = experiment: Immunopotentiating activity in sheep RBC-immunized BALB/c mouse assessed as CD8-positive splenic T-cells at 0.01 mg/kg, po for 14 days by flow cytometry (reference value: 13.3 +/- 0.34%); type: functional
Mus musculus [19] = experiment: Immunopotentiating activity in sheep RBC-immunized BALB/c mouse assessed as CD8-positive splenic T-cells at 0.1 mg/kg, po for 14 days by flow cytometry (reference value: 13.3 +/- 0.34%); type: functional
Mus musculus [20] = experiment: Immunopotentiating activity in sheep RBC-immunized BALB/c mouse assessed as ratio of CD4-positive splenic T-cells to CD8-positive splenic T-cells at 0.001 mg/kg, po for 14 days by flow cytometry (RVB = 1.56 +/- 0.09); type: functional
Mus musculus [21] = experiment: Immunopotentiating activity in sheep RBC-immunized BALB/c mouse assessed as ratio of CD4-positive splenic T-cells to CD8-positive splenic T-cells at 0.01 mg/kg, po for 14 days by flow cytometry (RVB = 1.56 +/- 0.09); type: functional
Mus musculus [22] = experiment: Immunopotentiating activity in sheep RBC-immunized BALB/c mouse assessed as ratio of CD4-positive splenic T-cells to CD8-positive splenic T-cells at 0.1 mg/kg, po for 14 days by flow cytometry (RVB = 1.56 +/- 0.09); type: functional
Mus musculus [23] = experiment: Immunopotentiating activity in sheep RBC-immunized BALB/c mouse assessed as CD4-positive T-cell content in spleen at 0.001 mg/kg, po for 14 days by flow cytometry (reference value: 2.7 +/- 0.12 10^7No_unit); type: functional
Mus musculus [24] = experiment: Immunopotentiating activity in sheep RBC-immunized BALB/c mouse assessed as CD4-positive T-cell content in spleen at 0.01 mg/kg, po for 14 days by flow cytometry (reference value: 2.7 +/- 0.12 10^7No_unit); type: functional
Mus musculus [25] = experiment: Immunopotentiating activity in sheep RBC-immunized BALB/c mouse assessed as CD4-positive T-cell content in spleen at 0.1 mg/kg, po for 14 days by flow cytometry (reference value: 2.7 +/- 0.12 10^7No_unit); type: functional
Mus musculus [26] = experiment: Immunopotentiating activity in sheep RBC-immunized BALB/c mouse assessed as CD8-positive T-cell content in spleen at 0.001 mg/kg, po for 14 days by flow cytometry (reference value: 1.47 +/- 0.04 10^7No_unit); type: functional
Mus musculus [27] = experiment: Immunopotentiating activity in sheep RBC-immunized BALB/c mouse assessed as CD8-positive T-cell content in spleen at 0.01 mg/kg, po for 14 days by flow cytometry (reference value: 1.47 +/- 0.04 10^7No_unit); type: functional
Mus musculus [28] = experiment: Immunopotentiating activity in sheep RBC-immunized BALB/c mouse assessed as CD8-positive T-cell content in spleen at 0.1 mg/kg, po for 14 days by flow cytometry (reference value: 1.47 +/- 0.04 10^7No_unit); type: functional
Mus musculus [29] = experiment: Immunopotentiating activity in sheep RBC-immunized BALB/c mouse assessed as increase in IL2 production in splenocytes administered orally for 14 days followed by incubation with ConA for 48 hrs by ELISA; type: functional, cell-based
Mus musculus [30] = experiment: Immunopotentiating activity in sheep RBC-immunized BALB/c mouse assessed as increase in interferon-gamma production in splenocytes administered orally for 14 days followed by incubation with ConA for 48 hrs by ELISA; type: functional, cell-based
Mus musculus [31] = experiment: Immunopotentiating activity in sheep RBC-immunized BALB/c mouse assessed as increase in IL4 production in splenocytes administered orally for 14 days followed by incubation with ConA for 48 hrs by ELISA; type: functional, cell-based
Mus musculus [32] = experiment: Immunopotentiating activity in sheep RBC-immunized BALB/c mouse assessed as increase in macrophage production by measuring increase in NO production administered orally for 14 days followed by incubation with LPS for 48 hrs by Griess assay; type: functional
Mus musculus [33] = species: Mus musculus; experiment: Cytotoxicity in BALB/c mouse splenocytes at 100 ug/ml measured after 72 hrs by MTT assay; type: toxicity; conditions: splenocyte

COc1ccc(C2=NOC(COc3ccc4ccc(=O)oc4c3)C2)c(OC)c1 (stereo not drawn)
Activity (Splenic lymphocyte [1]): Dose-dependent effect
Activity (Splenic lymphocyte [2]): Dose-dependent effect
Activity (Mus musculus [3]): Active
Activity (Mus musculus [4]): Active
Activity (Mus musculus [5]): Active
Activity (Mus musculus [6]): Active
Activity (Mus musculus [7]): Active
Activity (Mus musculus [8]): Active
Activity (Mus musculus [9]): Active
Activity (Mus musculus [10]): Dose-dependent effect
Activity (Mus musculus [11]): Dose-dependent effect
Activity (Mus musculus [12]): Dose-dependent effect
Activity (Mus musculus [13]): Dose-dependent effect
Activity (Mus musculus [14]): 20.3%
Activity (Mus musculus [15]): 27.2%
Activity (Mus musculus [16]): 35.3%
Activity (Mus musculus [17]): 15.4%
Activity (Mus musculus [18]): 16.2%
Activity (Mus musculus [19]): 19.9%
Ratio (Mus musculus [20]): 1.32
Ratio (Mus musculus [21]): 1.67
Ratio (Mus musculus [22]): 1.77
Activity (Mus musculus [23]): 1.16 ×10⁷ No_unit
Activity (Mus musculus [24]): 1.54 ×10⁷ No_unit
Activity (Mus musculus [25]): 1.67 ×10⁷ No_unit
Activity (Mus musculus [26]): 1.19 ×10⁷ No_unit
Activity (Mus musculus [27]): 1.29 ×10⁷ No_unit
Activity (Mus musculus [28]): 1.41 ×10⁷ No_unit
Activity (Mus musculus [29]): Dose-dependent effect
Activity (Mus musculus [30]): Dose-dependent effect
Activity (Mus musculus [31]): Dose-dependent effect
Activity (Mus musculus [32]): Dose-dependent effect
Activity (Mus musculus [33]): Non-Toxic
